Test results as given in patent US4559323A, “A41030 Antibiotics” (Eli Lilly and Company, priority 1984, dated 1985).
Values after ≈ are worked out from the molar mass of the structure shown.

Assays:
[1] = test system: Peptococcus asaccharolyticus; experiment: Agar-dilution MIC (anaerobes); format: cell-based; settings: Table 14; Peptococcus asaccharolyticus 1302
[2] = test system: S. pyogenes; experiment: Experimental bacterial infection in mice, subcutaneous ED50; format: in vivo; settings: two doses subcutaneously
Experimental: (§1) All of the A41030 factors tested have shown in vivo antimicrobial activity against experimental bacterial infections. When two doses of test compound were administered subcutaneously to mice in illustrative infections, the activity observed is measured as an ED50 value [effective dose in mg./kg. to protect fifty percent of the test animals: See Warren Wick, et al., J. Bacteriol. 81, 233-235 (1961)].

[3] = test system: Staph. aureus; experiment: as above; format: in vivo; settings: two doses subcutaneously
Experimental: as §1

[4] = test system: S. pneumoniae; experiment: as above; format: in vivo; settings: two doses subcutaneously
Experimental: as §1

[5] = test system: Pc. magnus; experiment: Agar-dilution MIC (anaerobes); format: cell-based, Peptococcus magnus; settings: Table 15
Experimental: The MIC values were determined by the agar-dilution method, and are recorded in Table 15, which follows.

[6] = test system: Staphylococcus aureus; experiment: Agar-dilution MIC; format: cell-based; settings: Table 17; 24 hours; Staphylococcus aureus X400
[7] = test system: Clostridium septicum; experiment: Agar-dilution MIC (anaerobes); format: cell-based; settings: Table 14; Clostridium septicum 1128
[8] = test system: Propionibacterium acnes; experiment: Agar-dilution MIC (anaerobes); format: cell-based
Source text: Antibiotic A41030 factors A, B and C have also been tested and found to be active against a genus of anaerobic bacteria identified as Propionibacterium acnes.

[9] = test system: Staphylococcus epidermidis; experiment: Agar-dilution MIC; format: cell-based; settings: Table 17; 24 hours; Staphylococcus epidermidis EPI1
Source text: (§2) The agar-dilution procedure described by the International Collaborative study (ICS) group was used to determine the minimum inhibitory concentrations (MIC's).

[10] = test system: Streptococcus pneumoniae; experiment: Agar-dilution MIC; format: cell-based; settings: Table 17; 24 hours; Streptococcus pneumoniae Park I
Source text: as §2

[11] = test system: Peptostreptococcus intermedius; experiment: Agar-dilution MIC (anaerobes); format: cell-based
[12] = mice, administered intraperitoneally
[13] = test system: Escherichia coli EC14; experiment: Disc-plate sensitivity procedure; format: cell-based
[14] = test system: pseudorabies; settings: in vitro at 20 mcg./ml.
[15] = test system: Viridans streptococcus; experiment: Agar-dilution MIC; format: cell-based; settings: Table 11
[16] = test system: Streptococcus pyogenes C203; experiment: Disc-plate sensitivity procedure; format: cell-based
[17] = test system: Streptococcus sp. Group B; experiment: Agar-dilution MIC; format: cell-based; settings: Table 18, 24 hours
Source text: The in vitro activity of antibiotic A41030 factors A and B against a number of representative aerobic, gram-positive bacteria, including Streptococcus sp. Group D, has been determined using a standard agar-dilution assay.

[18] = test system: Streptococcus sp. (Group D) 9960; experiment: Disc-plate sensitivity procedure; format: cell-based
[19] = test system: Escherichia coli; experiment: Agar-dilution MIC; format: cell-based; settings: Table 17; 24 hours; Escherichia coli EC14
[20] = test system: Streptococcus faecalis; experiment: Agar-dilution MIC; format: cell-based; settings: Table 7; Streptococcus faecalis X66
[21] = test system: Staphylococcus aureus; experiment: Disc-plate sensitivity procedure; format: cell-based; settings: Table 8
[22] = test system: Shigella flexneri; settings: Table 11; Shigella flexneri SH-4
Source text: as §2

[23] = test system: Haemophilus parainfluenzae; experiment: Agar-dilution MIC; format: cell-based; settings: Table 18, 24 hours
[24] = test system: Streptococcus pneumoniae Park I; experiment: Disc-plate sensitivity procedure; format: cell-based

## A41030 factor C
[1]
  MIC: ≤ 0.25 µg/mL
[2]
  ED50: 10.4 mg/kg
[3]
  ED50: < 0.43 mg/kg
[4]
  ED50: 6.7 mg/kg
[5]; Pc. magnus 1401
  MIC: 0.25 µg/mL
[5]; Pc. magnus 1421
  MIC: 0.25 µg/mL
[5]; Pc. magnus 1477
  MIC: 0.5 µg/mL
[6]
  MIC: 1 µg/mL
[7]
  MIC: 8 µg/mL
[8]; Table 13, 24-hour, P. acnes 44
  MIC: 0.125 µg/mL
[8]; Table 13, 24-hour, P. acnes 79
  MIC: 0.125 µg/mL
[8]; Table 13, 24-hour, P. acnes 101
  MIC: 0.125 µg/mL
[8]; Table 13, 24-hour, P. acnes 103
  MIC: 0.125 µg/mL
[8]; Table 13, 24-hour, P. acnes 104
  MIC: 0.25 µg/mL
[8]; Table 13, 24-hour, P. acnes 105
  MIC: 0.125 µg/mL
[8]; Table 13, 24-hour, P. acnes 106
  MIC: 0.125 µg/mL
[8]; Table 13, 24-hour, P. acnes 107
  MIC: 0.125 µg/mL
[8]; Table 13, 24-hour, P. acnes 5170
  MIC: ≤ 0.03 µg/mL
[8]; Table 13, 24-hour, P. acnes 5176
  MIC: ≤ 0.03 µg/mL
[8]; Table 13, 24-hour, P. acnes 5187
  MIC: 0.06 µg/mL
[8]; Table 13, 24-hour, P. acnes 5191
  MIC: 0.125 µg/mL
[8]; Table 13, 24-hour, P. acnes 5197
  MIC: ≤ 0.03 µg/mL
[8]; Table 13, 24-hour, P. acnes 5226
  MIC: 0.125 µg/mL
[8]; Table 13, 24-hour, P. acnes 5227
  MIC: 0.06 µg/mL
[8]; Table 13, 24-hour, P. acnes 5228
  MIC: 1.0 µg/mL
[8]; Table 13, 24-hour, P. acnes 5229
  MIC: 0.5 µg/mL
[8]; Table 13, 24-hour, P. acnes 5246
  MIC: 0.06 µg/mL
[8]; Table 13, 24-hour, P. acnes 5292
  MIC: 0.06 µg/mL
[8]; Table 14, Propionibacterium acnes 79
  MIC: ≤ 0.25 µg/mL
[9]
  MIC: 0.5 µg/mL
[10]
  MIC: 1 µg/mL
[11]; Table 15, Ps. intermedius 1264
  MIC: ≤ 0.03 µg/mL
[11]; Table 15, Ps. intermedius 1624
  MIC: 1.0 µg/mL

## NC1C(=O)NC2Cc3ccc(c(Cl)c3)Oc3cc4cc(c3O)Oc3ccc(cc3Cl)C(O)C3NC(=O)C(NC(=O)C4NC(=O)C(NC2=O)c2cc(O)cc(c2)Oc2cc1ccc2O)c1cc(Cl)c(O)c(c1)-c1c(O)cc(O)cc1C(C(=O)O)NC3=O (centres unmarked) [A41030 factor A]
[12]
  LD50: > 300 mg/kg
  acute toxicity: > 300 mg/kg
[13]; Table 8, 10 μg./disc
  Zone diameter: 0 mm
[13]; Table 8, 100 μg./disc
  Zone diameter: 8.0 mm
[2]
  ED50: 2.8 mg/kg
[3]
  ED50: 1.4 mg/kg
[4]
  ED50: 1.68 mg/kg
[14]
  activity against pseudorabies: shown activity
[7]
  MIC: 2 µg/mL (≈ 1.62 µM)
[15]; Viridans streptococcus SM-1134
  MIC: 0.5 µg/mL (≈ 0.405 µM)
[15]; Viridans streptococcus SSI-910
  MIC: 0.25 µg/mL (≈ 0.203 µM)
[15]; Viridans streptococcus SSII-895
  MIC: 0.25 µg/mL (≈ 0.203 µM)
[16]; Table 8, 10 μg./disc
  Zone diameter: 12.0 mm
[16]; Table 8, 100 μg./disc
  Zone diameter: 15.0 mm
[17]; Streptococcus sp. Group B 5
  MIC: 1 µg/mL (≈ 0.811 µM)
[17]; Streptococcus sp. Group B 14
  MIC: 0.06 µg/mL (≈ 0.0486 µM)
[18]; Table 8, 10 μg./disc
  Zone diameter: 16.4 mm
[18]; Table 8, 100 μg./disc
  Zone diameter: 20.5 mm
[19]
  MIC: 128 µg/mL (≈ 104 µM)
[20]
  MIC: < 0.5 µg/mL
[21]; S. aureus 3055 benzylpenicillin-susceptible, 10 μg./disc
  Zone diameter: 17.2 mm
[21]; S. aureus 3055 benzylpenicillin-susceptible, 100 μg./disc
  Zone diameter: 20.8 mm
[21]; S. aureus 3074 benzylpenicillin-resistant, 10 μg./disc
  Zone diameter: 16.7 mm
[21]; S. aureus 3074 benzylpenicillin-resistant, 100 μg./disc
  Zone diameter: 19.8 mm
[21]; S. aureus 3130 benzylpenicillin- and methicillin-resistant, 10 μg./disc
  Zone diameter: 17.4 mm
[21]; S. aureus 3130 benzylpenicillin- and methicillin-resistant, 100 μg./disc
  Zone diameter: 21.4 mm
[22]
  MIC: 64 µg/mL (≈ 51.9 µM)
[11]; Table 14, Peptostreptococcus intermedius 1264
  MIC: 1.0 µg/mL (≈ 0.811 µM)
[11]; Table 15, Ps. intermedius 1264
  MIC: ≤ 0.03 µg/mL
[11]; Table 15, Ps. intermedius 1524
  MIC: 0.5 µg/mL (≈ 0.405 µM)
[11]; Table 15, Ps. intermedius 1624
  MIC: 1.0 µg/mL (≈ 0.811 µM)
[23]; Haemophilus parainfluenzae 7901
  MIC: 16 µg/mL (≈ 13 µM)
[23]; Haemophilus parainfluenzae 9796
  MIC: 16 µg/mL (≈ 13 µM)
[24]; Table 8, 10 μg./disc
  Zone diameter: 15.0 mm
[24]; Table 8, 100 μg./disc
  Zone diameter: 17.0 mm
